Each block holds one compound with its values, some of them ahead of it.
How the values were obtained:
Type in all cases: functional, cell-based
[1] = target: T1, Oatp2 (Solute carrier organic anion transporter family member 1A4) (Rattus norvegicus, UniProt O35913); assay: TP_TRANSPORTER: inhibition of Digoxin uptake (Digoxin: 0.05 uM, Verapamil: 1000 uM) in Oatp2-expressing LLC-PK1 cells; parameters: scale not given: the % may be the effect or the level left; conditions: pig, probe Digoxin, read-out: Activity
T1 sequence (O35913 whole entry): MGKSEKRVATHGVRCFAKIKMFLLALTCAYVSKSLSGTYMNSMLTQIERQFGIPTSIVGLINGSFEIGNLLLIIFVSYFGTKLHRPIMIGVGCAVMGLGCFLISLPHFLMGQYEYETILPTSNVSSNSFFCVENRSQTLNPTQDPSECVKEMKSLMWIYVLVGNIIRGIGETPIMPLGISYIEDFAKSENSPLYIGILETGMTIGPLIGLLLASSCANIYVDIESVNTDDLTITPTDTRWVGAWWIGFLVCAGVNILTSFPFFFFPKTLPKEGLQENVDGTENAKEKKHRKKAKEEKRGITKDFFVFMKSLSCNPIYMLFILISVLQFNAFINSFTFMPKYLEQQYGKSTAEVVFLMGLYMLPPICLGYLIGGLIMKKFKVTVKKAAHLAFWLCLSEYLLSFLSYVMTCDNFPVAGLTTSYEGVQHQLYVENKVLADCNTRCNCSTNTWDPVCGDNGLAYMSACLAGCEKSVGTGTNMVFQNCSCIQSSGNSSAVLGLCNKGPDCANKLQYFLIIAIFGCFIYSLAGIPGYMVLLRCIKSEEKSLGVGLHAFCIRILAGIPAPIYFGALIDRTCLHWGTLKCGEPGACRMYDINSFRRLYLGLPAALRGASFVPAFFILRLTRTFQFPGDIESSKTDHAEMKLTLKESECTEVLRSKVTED

[2] = target: T2, Oatp1 (Solute carrier organic anion transporter family member 1A1) (Rattus norvegicus, UniProt P46720); assay: TP_TRANSPORTER: inhibition of E217betaG uptake (E217betaG: 0.1 uM, Verapamil: 1000 uM) in Oatp1-expressing LLC-PK1 cells; parameters: scale not given: the % may be the effect or the level left; conditions: pig, probe E217betaG, read-out: Activity
T2 sequence (P46720 whole entry): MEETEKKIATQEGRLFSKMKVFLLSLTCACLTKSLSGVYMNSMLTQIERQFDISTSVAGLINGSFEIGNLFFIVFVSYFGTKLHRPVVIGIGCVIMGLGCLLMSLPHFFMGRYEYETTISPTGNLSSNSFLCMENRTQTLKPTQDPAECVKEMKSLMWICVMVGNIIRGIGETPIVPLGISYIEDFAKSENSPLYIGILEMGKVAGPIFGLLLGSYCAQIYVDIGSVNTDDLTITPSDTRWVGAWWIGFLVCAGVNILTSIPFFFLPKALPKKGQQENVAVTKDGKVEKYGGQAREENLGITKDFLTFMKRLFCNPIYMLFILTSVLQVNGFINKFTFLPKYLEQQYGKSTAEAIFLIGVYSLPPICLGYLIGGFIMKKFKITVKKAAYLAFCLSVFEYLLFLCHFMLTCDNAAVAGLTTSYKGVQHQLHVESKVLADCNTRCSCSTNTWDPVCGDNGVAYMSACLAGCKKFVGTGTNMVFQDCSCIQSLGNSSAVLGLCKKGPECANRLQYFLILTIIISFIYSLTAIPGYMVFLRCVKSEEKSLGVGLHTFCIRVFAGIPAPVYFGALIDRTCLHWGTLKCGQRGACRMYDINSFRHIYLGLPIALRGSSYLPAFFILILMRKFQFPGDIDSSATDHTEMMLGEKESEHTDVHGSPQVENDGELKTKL

[3] = target: T1, Oatp2 (Solute carrier organic anion transporter family member 1A4); assay: TP_TRANSPORTER: inhibition of Digoxin uptake (Digoxin: 0.05 uM, Corticosterone: 100 uM) in Oatp2-expressing LLC-PK1 cells; parameters: scale not given: the % may be the effect or the level left; conditions: pig, probe Digoxin, read-out: Activity
[4] = target: T2, Oatp1 (Solute carrier organic anion transporter family member 1A1); assay: TP_TRANSPORTER: inhibition of E217betaG uptake (E217betaG: 0.1 uM, Deoxycorticosterone: 100 uM) in Oatp1-expressing LLC-PK1 cells; parameters: scale not given: the % may be the effect or the level left; conditions: pig, probe E217betaG, read-out: Activity
[5] = target: T1, Oatp2 (Solute carrier organic anion transporter family member 1A4); assay: TP_TRANSPORTER: inhibition of Digoxin uptake (Digoxin: 0.05 uM, Deoxycorticosterone: 100 uM) in Oatp2-expressing LLC-PK1 cells; parameters: scale not given: the % may be the effect or the level left; conditions: pig, probe Digoxin, read-out: Activity
[6] = target: T2, Oatp1 (Solute carrier organic anion transporter family member 1A1); assay: TP_TRANSPORTER: inhibition of E217betaG uptake (E217betaG: 0.1 uM, Glibenclamide: 1000 uM) in Oatp1-expressing LLC-PK1 cells; parameters: scale not given: the % may be the effect or the level left; conditions: pig, probe E217betaG, read-out: Activity
[7] = target: T1, Oatp2 (Solute carrier organic anion transporter family member 1A4); assay: TP_TRANSPORTER: inhibition of Digoxin uptake (Digoxin: 0.05 uM, Glibenclamide: 1000 uM) in Oatp2-expressing LLC-PK1 cells; parameters: scale not given: the % may be the effect or the level left; conditions: pig, probe Digoxin, read-out: Activity
[8] = target: T3, Solute carrier organic anion transporter family member 1A4 (Rattus norvegicus, UniProt O35913); assay: TP_TRANSPORTER: inhibition of Digoxin uptake in Oatp2-expressing LLC-PK1 cells
T3 sequence (O35913 whole entry): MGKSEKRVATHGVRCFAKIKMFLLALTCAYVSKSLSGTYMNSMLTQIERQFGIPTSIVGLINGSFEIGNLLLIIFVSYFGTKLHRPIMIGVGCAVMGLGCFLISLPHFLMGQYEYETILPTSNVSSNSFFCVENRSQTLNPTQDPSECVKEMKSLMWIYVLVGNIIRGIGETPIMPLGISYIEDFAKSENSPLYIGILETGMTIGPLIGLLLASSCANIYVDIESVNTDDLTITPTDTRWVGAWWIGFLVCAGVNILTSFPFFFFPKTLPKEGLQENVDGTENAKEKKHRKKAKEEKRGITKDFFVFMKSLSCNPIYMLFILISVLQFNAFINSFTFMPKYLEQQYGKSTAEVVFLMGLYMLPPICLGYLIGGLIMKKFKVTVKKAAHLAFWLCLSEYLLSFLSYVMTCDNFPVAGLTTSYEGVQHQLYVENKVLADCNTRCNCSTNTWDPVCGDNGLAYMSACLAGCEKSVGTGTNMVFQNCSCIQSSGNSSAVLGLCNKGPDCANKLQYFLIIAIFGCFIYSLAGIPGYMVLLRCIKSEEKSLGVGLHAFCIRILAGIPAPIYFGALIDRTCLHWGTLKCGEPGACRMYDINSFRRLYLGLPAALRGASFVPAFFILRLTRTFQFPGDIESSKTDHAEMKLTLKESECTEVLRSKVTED

[9] = target: T4, Solute carrier organic anion transporter family member 1A1 (Rattus norvegicus, UniProt P46720); assay: TP_TRANSPORTER: inhibition of E217betaG uptake in Oatp1-expressing LLC-PK1 cells
T4 sequence (P46720 whole entry): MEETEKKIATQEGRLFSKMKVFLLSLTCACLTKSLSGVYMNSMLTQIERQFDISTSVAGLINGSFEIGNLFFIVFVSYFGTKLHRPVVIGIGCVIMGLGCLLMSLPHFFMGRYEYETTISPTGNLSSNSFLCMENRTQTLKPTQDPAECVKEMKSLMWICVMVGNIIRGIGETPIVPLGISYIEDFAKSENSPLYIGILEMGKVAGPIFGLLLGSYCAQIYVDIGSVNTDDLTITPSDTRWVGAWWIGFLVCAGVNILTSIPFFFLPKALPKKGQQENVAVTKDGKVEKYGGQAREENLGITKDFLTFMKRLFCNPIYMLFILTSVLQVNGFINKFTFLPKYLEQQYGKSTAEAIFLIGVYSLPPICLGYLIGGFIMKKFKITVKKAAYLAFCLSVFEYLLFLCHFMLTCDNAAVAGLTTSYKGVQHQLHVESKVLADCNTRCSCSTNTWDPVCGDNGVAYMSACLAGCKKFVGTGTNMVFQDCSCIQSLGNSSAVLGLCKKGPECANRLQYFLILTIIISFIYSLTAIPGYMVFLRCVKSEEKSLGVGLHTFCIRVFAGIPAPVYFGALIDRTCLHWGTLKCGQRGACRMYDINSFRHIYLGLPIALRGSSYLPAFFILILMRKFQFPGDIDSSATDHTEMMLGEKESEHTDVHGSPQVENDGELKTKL

[10] = target: T2, Oatp1 (Solute carrier organic anion transporter family member 1A1); assay: TP_TRANSPORTER: inhibition of E217betaG uptake (E217betaG: 0.1 uM, Indomethacin: 1000 uM) in Oatp1-expressing LLC-PK1 cells; parameters: scale not given: the % may be the effect or the level left; conditions: pig, probe E217betaG, read-out: Activity
[11] = target: T1, Oatp2 (Solute carrier organic anion transporter family member 1A4); assay: TP_TRANSPORTER: inhibition of Digoxin uptake (Digoxin: 0.05 uM, Indomethacin: 1000 uM) in Oatp2-expressing LLC-PK1 cells; parameters: scale not given: the % may be the effect or the level left; conditions: pig, probe Digoxin, read-out: Activity
[12] = target: T1, Oatp2 (Solute carrier organic anion transporter family member 1A4); assay: TP_TRANSPORTER: inhibition of Digoxin uptake (Digoxin: 0.05 uM, Ketoprofen: 1000 uM) in Oatp2-expressing LLC-PK1 cells; parameters: scale not given: the % may be the effect or the level left; conditions: pig, probe Digoxin, read-out: Activity
[13] = target: T2, Oatp1 (Solute carrier organic anion transporter family member 1A1); assay: TP_TRANSPORTER: inhibition of E217betaG uptake (E217betaG: 0.1 uM, Ketoprofen: 1000 uM) in Oatp1-expressing LLC-PK1 cells; parameters: scale not given: the % may be the effect or the level left; conditions: pig, probe E217betaG, read-out: Activity

activity at 1000 µM [1]: 4.12%
activity at 1000 µM [2]: 3.93%
SMILES: COc1ccc(CCN(C)CCCC(C#N)(c2ccc(OC)c(OC)c2)C(C)C)cc1OC (stereo not drawn)

activity at 100 µM [3]: 32.9%
SMILES: C[C@]12C[C@H](O)[C@H]3[C@@H](CCC4=CC(=O)CC[C@@]43C)[C@@H]1CC[C@@H]2C(=O)CO [CORTICOSTERONE]

SMILES: C[C@]12CC[C@H]3[C@@H](CCC4=CC(=O)CC[C@@]43C)[C@@H]1CC[C@@H]2C(=O)CO [DESOXYCORTICOSTERONE]
activity at 100 µM [4]: 1.34%
activity at 100 µM [5]: 13.6%

activity at 1000 µM [6]: 2.33%
activity at 1000 µM [7]: 1.61%
SMILES: COc1ccc(Cl)cc1C(=O)NCCc1ccc(S(=O)(=O)NC(=O)NC2CCCCC2)cc1 [GLYBURIDE]

Ki [8]: 2430 µM
Ki [9]: 126 µM
SMILES: CC(C)Cc1ccc(C(C)C(=O)O)cc1 (stereo not drawn) [IBUPROFEN]

activity at 1000 µM [10]: 1.16%
activity at 1000 µM [11]: 14.3%
SMILES: COc1ccc2c(c1)c(CC(=O)O)c(C)n2C(=O)c1ccc(Cl)cc1 [INDOMETHACIN]

activity at 1000 µM [12]: 30.2%
activity at 1000 µM [13]: 6.89%
SMILES: CC(C(=O)O)c1cccc(C(=O)c2ccccc2)c1 (stereo not drawn) [KETOPROFEN]
